Assays:
Format in all cases: biochemical
[1] = target: T1, MMP-8 (purified human neutrophil collagenase) (Homo sapiens, UniProt P22894); test: MMP-8 enzyme assay with fluorescent peptide substrate; conditions: APMA-activated MMP-8, 22° C., EAB pH 7.0
T1 construct: purchased EMD Biosciences/Calbiochem 444229
Experimental: (§1) From the studies of repeated activity and lack of interference, we were able to identify three lead ingredients for further development (A, C, D; A & B were two forms of the same dried extract). These were tested in a second laboratory, using a more sensitive in vitro (non-cellular) assay system, again for individual activity and interference/synergy among MMP-inhibitors and the IL-1-inhibitor against all three forms of MMP. These assays used enzyme kinetic dose curves to determine the IC50 of each extract, Doxycyclin, and combinations of extracts (including the IL-1-inhibitor, e.g., Rosehips).
MMP-8: Purified human neutrophil collagenase was purchased from EMD
Biosciences/Calbiochem, cat # 444229. Activation of MMP-8 was required for the experiments and was performed using aminophenylmercuric acetate (APMA) for 2 h at 37° C.
Peptide substrate: The fluorescent peptide substrate Mca-Pro-Leu-Gly-Leu-Dnp-Ala-Arg-NH2 was for measuring the MMP-8 activities (Peptides International, Louisville, Ky.). The Mca is a fluorescent group and Dnp is a quencher. When the cleavage occurs, a strong fluorescent signal is released and can be measured with λex at 328 nm and λem at 393 nm.
To reduce any self-degradation of the gelatin substrate, all assays were performed at 22° C. […]

[2] = target: T2, Recombinant MMP-2 (Homo sapiens, UniProt P08253); test: MMP-2 enzyme assay with DQ gelatin fluorescent substrate; conditions: 22° C., EAB pH 7.0, soluble phase of extracts
T2 construct: made in house
T2 sequence (P08253 110-660): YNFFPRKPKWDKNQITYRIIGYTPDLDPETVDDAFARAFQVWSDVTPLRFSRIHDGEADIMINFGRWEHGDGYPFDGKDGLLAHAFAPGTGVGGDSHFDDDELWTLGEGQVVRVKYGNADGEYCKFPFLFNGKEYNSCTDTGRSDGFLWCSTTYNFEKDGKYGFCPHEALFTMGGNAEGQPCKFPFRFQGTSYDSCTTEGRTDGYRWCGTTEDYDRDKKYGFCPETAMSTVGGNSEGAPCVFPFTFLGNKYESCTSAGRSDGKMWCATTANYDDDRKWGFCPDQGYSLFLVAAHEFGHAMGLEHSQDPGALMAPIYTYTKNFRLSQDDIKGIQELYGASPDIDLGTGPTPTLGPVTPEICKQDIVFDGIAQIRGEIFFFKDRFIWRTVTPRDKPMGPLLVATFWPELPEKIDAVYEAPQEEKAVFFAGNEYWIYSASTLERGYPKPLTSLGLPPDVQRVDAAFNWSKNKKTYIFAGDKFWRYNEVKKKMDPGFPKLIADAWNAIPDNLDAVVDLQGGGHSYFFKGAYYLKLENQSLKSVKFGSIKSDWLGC
Experimental: as §1
MMP-2 and MMP-9: Recombinant MMP-2 and MMP-9 were expressed as recombinant proteins and purified in constitutively active forms.
DQ gelatin: A highly labeled porcine gelatin substrate (Molecular Probes, Eugine, Oreg.) was used for the enzyme assays with MMP-2 and MMP-9. The substrate degradation was measured with λex at 494 nm and λem at 515 nm
To reduce any self-degradation of the gelatin substrate, all assays were performed at 22° C. The enzyme assay buffer (EAB) used for MMP-2, MMP-9, and MMP-8 was 50 mM Tris, pH 7.0, 200 mM NaCl, 5 mM CaCl2, 1 μM ZnCl2, 0.05% Brij 35. Assays were performed under conditions where the substrates were not rate limiting. […]

[3] = tested on: MMP-2 or 9; test: BIOMOL colorimetric assay kit screen of botanical extracts, MMP-2 or 9 proteolytic activity; conditions: first round screening; relative to Doxycycline
Excerpt: (§2) In excess of 80 botanical extracts (BE), were screened in vitro for inhibition against MMP-2, 8, & 9 proteolytic activity. […] Individual calorimetric assay kits (BIOMOL) were used according to the manufacturer's instructions to measure the proteolytic activity of MMP's-2, 8, and 9 in the presence or absence of individual extracts and define mixtures of extracts. The known MMP-inhibitor, Doxycycline was used as an internal standard for comparison of inhibiting activity. The following final concentrations of individual ingredients are combined (along with additional confirmatory test of the “neat” ingredients). Again all tests include a “gold standard” positive control (Doxycycline). The purpose of this interference testing is to see whether combined ingredients result in different levels of inhibition for all three MMP's (2, 8, 9) than found for individual ingredients. All samples are dissolved or extracted in water where practical and otherwise specified.

[4] = target: T3, MMP-8 (Homo sapiens, UniProt P22894); test: BIOMOL colorimetric assay kit screen of botanical extracts, MMP-8 proteolytic activity; conditions: first round screening; relative to Doxycycline
T3 construct: purchased BIOMOL
Excerpt: as §2

T3 sequence (P22894 100-262 limits assumed): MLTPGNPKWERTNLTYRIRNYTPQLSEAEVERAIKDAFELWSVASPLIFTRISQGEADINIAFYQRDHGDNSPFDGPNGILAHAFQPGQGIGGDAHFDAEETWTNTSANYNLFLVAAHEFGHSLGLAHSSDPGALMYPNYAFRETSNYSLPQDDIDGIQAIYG
T1 sequence (P22894 101-467): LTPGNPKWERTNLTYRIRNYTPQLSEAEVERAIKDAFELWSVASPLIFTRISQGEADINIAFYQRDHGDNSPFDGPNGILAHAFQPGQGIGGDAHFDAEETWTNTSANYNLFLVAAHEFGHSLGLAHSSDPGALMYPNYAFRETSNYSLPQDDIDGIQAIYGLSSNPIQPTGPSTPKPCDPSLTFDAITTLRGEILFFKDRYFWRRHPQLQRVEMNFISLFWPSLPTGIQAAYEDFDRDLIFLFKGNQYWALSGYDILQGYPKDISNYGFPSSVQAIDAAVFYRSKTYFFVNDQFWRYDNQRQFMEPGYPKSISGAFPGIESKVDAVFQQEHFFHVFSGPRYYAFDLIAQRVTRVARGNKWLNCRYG

C[C@H]1c2cccc(O)c2C(O)=C2C(=O)[C@]3(O)C(O)=C(C(N)=O)C(=O)[C@@H](N(C)C)[C@@H]3[C@@H](O)[C@@H]21 [DOX, Doxycycline] was tested, and the “IC50 for MMP-8” value [1] was 35 µg/mL and the “IC50 for MMP-2” value [2] was 32 µg/mL.
In the case of O=c1c(O)c(-c2ccc(O)c(O)c2)oc2cc(O)cc(O)c12 [E) Quercetin, Quercetin], the “Inhib. Relative to Doxy. (Fold = % inhib X/% inhib Dox), MMP-2 or 9” value [3] is reported as 1.56 Fold and the “Inhib. Relative to Doxy. (Fold = % inhib X/% inhib Dox), MMP-8” value [4] is reported as 0.82 Fold.

— US20070275104A1, “Food Compositions and Methods of Treating Periodontal Disease” (priority 2006, published 2007)
